US8883841B2, “Oncogenic ras-specific cytotoxic compound and methods of use thereof” (The Board of Regents of the University of Texas System, priority 2005, dated 2014)

What was measured:
UACC-62 = experiment: NCI in-vitro testing, UACC-62 (Melanoma)
HL-60(TB) = experiment: NCI in-vitro testing, HL-60(TB) (Leukemia)
M14 = experiment: NCI in-vitro testing, M14 (Melanoma)
MALME-3M = experiment: NCI in-vitro testing, MALME-3M (Melanoma)
TK-10 = experiment: NCI in-vitro testing, TK-10 (Renal Cancer)
BT-549 = experiment: NCI in-vitro testing, BT-549 (Breast Cancer)
SK-OV-3 = experiment: NCI in-vitro testing, SK-OV-3 (Ovarian Cancer)
T29Kt1 cells = conditions: Table 1; value is the negative log10 of mol/L
MDA-MB-435 = experiment: NCI in-vitro testing, MDA-MB-435 (Breast Cancer)
OVCAR-4 = experiment: NCI in-vitro testing, OVCAR-4 (Ovarian Cancer)
SK-MEL-28 = experiment: NCI in-vitro testing, SK-MEL-28 (Melanoma)
NCI/ADR-RES = experiment: NCI in-vitro testing, NCI/ADR-RES (Breast Cancer)
MCF7 = experiment: NCI in-vitro testing, MCF7 (Breast Cancer)
T-47D = experiment: NCI in-vitro testing, T-47D (Breast Cancer)
ACHN = experiment: NCI in-vitro testing, ACHN (Renal Cancer)

O=Cc1cn(Cc2cccc(Cl)c2)c2ccccc12 [Oncrasin K027, 1-(3-chlorobenzyl)-1H-indole-3-carbaldehyde]
GI50 (UACC-62; Homo sapiens, UACC-62): 0.0451 µM
CC50 (UACC-62; Homo sapiens, UACC-62, read-out: LC50): 11.4 µM
TGI (UACC-62; UACC-62): 8.97E−7 Molar
Percent Growth (UACC-62; UACC-62, Log10 Concentration −4.0 Molar): −94%
Percent Growth (UACC-62; UACC-62, Log10 Concentration −5.0 Molar): −47%
Percent Growth (UACC-62; UACC-62, Log10 Concentration −6.0 Molar): −2%
Percent Growth (UACC-62; UACC-62, Log10 Concentration −7.0 Molar): 35%
Percent Growth (UACC-62; UACC-62, Log10 Concentration −8.0 Molar): 79%
TGI (HL-60(TB); HL-60(TB)): 1.28E−5 Molar
Percent Growth (HL-60(TB); HL-60(TB), Log10 Concentration −4.0 Molar): −78%
Percent Growth (HL-60(TB); HL-60(TB), Log10 Concentration −5.0 Molar): 9%
Percent Growth (HL-60(TB); HL-60(TB), Log10 Concentration −6.0 Molar): 89%
Percent Growth (HL-60(TB); HL-60(TB), Log10 Concentration −7.0 Molar): 85%
Percent Growth (HL-60(TB); HL-60(TB), Log10 Concentration −8.0 Molar): 95%
GI50 (HL-60(TB); Homo sapiens, HL-60): 2.1 µM
CC50 (HL-60(TB); Homo sapiens, HL-60, read-out: LC50): 48.1 µM
GI50 (M14; Homo sapiens, M14): 5.16 µM
CC50 (M14; Homo sapiens, M14, read-out: LC50): 55.9 µM
TGI (M14; M14): 2.03E−5 Molar
Percent Growth (M14; M14, Log10 Concentration −4.0 Molar): −79%
Percent Growth (M14; M14, Log10 Concentration −5.0 Molar): 35%
Percent Growth (M14; M14, Log10 Concentration −6.0 Molar): 87%
Percent Growth (M14; M14, Log10 Concentration −7.0 Molar): 94%
Percent Growth (M14; M14, Log10 Concentration −8.0 Molar): 95%
GI50 (MALME-3M; Homo sapiens, Malme-3M): 5.17 µM
CC50 (MALME-3M; Homo sapiens, Malme-3M, read-out: LC50): 82 µM
TGI (MALME-3M; MALME-3M): 2.37E−5 Molar
Percent Growth (MALME-3M; MALME-3M, Log10 Concentration −4.0 Molar): −58%
Percent Growth (MALME-3M; MALME-3M, Log10 Concentration −5.0 Molar): 35%
Percent Growth (MALME-3M; MALME-3M, Log10 Concentration −6.0 Molar): 88%
Percent Growth (MALME-3M; MALME-3M, Log10 Concentration −7.0 Molar): 114%
Percent Growth (MALME-3M; MALME-3M, Log10 Concentration −8.0 Molar): 105%
GI50 (TK-10; Homo sapiens, TK-10): 0.0153 µM
CC50 (TK-10; Homo sapiens, TK-10, read-out: LC50): > 100 µM
TGI (TK-10; TK-10): 8.84E−8 Molar
Percent Growth (TK-10; TK-10, Log10 Concentration −4.0 Molar): −16%
Percent Growth (TK-10; TK-10, Log10 Concentration −5.0 Molar): −8%
Percent Growth (TK-10; TK-10, Log10 Concentration −6.0 Molar): −10%
Percent Growth (TK-10; TK-10, Log10 Concentration −7.0 Molar): −3%
Percent Growth (TK-10; TK-10, Log10 Concentration −8.0 Molar): 62%
TGI (BT-549; BT-549): 1.73E−5 Molar
Percent Growth (BT-549; BT-549, Log10 Concentration −4.0 Molar): −85%
Percent Growth (BT-549; BT-549, Log10 Concentration −5.0 Molar): 28%
Percent Growth (BT-549; BT-549, Log10 Concentration −6.0 Molar): 97%
Percent Growth (BT-549; BT-549, Log10 Concentration −7.0 Molar): 116%
Percent Growth (BT-549; BT-549, Log10 Concentration −8.0 Molar): 110%
GI50 (BT-549; Homo sapiens, BT-549): 4.82 µM
CC50 (BT-549; Homo sapiens, BT-549, read-out: LC50): 488 µM
GI50 (SK-OV-3; Homo sapiens, SK-OV-3): 1.82 µM
CC50 (SK-OV-3; Homo sapiens, SK-OV-3, read-out: LC50): > 100 µM
TGI (SK-OV-3; SK-OV-3): 2.95E−5 Molar
Percent Growth (SK-OV-3; SK-OV-3, Log10 Concentration −4.0 Molar): −18%
Percent Growth (SK-OV-3; SK-OV-3, Log10 Concentration −5.0 Molar): 16%
Percent Growth (SK-OV-3; SK-OV-3, Log10 Concentration −6.0 Molar): 62%
Percent Growth (SK-OV-3; SK-OV-3, Log10 Concentration −7.0 Molar): 85%
Percent Growth (SK-OV-3; SK-OV-3, Log10 Concentration −8.0 Molar): 96%
IC50 in T29k cells (T29Kt1 cells): 6.43
GI50 (MDA-MB-435; Homo sapiens, MDA-MB-435): 1.93 µM
CC50 (MDA-MB-435; Homo sapiens, MDA-MB-435, read-out: LC50): > 100 µM
TGI (MDA-MB-435; MDA-MB-435): 5.47E−5 Molar
Percent Growth (MDA-MB-435; MDA-MB-435, Log10 Concentration −4.0 Molar): −29%
Percent Growth (MDA-MB-435; MDA-MB-435, Log10 Concentration −5.0 Molar): 81%
Percent Growth (MDA-MB-435; MDA-MB-435, Log10 Concentration −6.0 Molar): 96%
Percent Growth (MDA-MB-435; MDA-MB-435, Log10 Concentration −7.0 Molar): 100%
Percent Growth (MDA-MB-435; MDA-MB-435, Log10 Concentration −8.0 Molar): 102%
GI50 (OVCAR-4; Homo sapiens, OVCAR-4): 0.34 µM
CC50 (OVCAR-4; Homo sapiens, OVCAR-4, read-out: LC50): > 100 µM
TGI (OVCAR-4; OVCAR-4): 1.80E−5 Molar
Percent Growth (OVCAR-4; OVCAR-4, Log10 Concentration −4.0 Molar): −29%
Percent Growth (OVCAR-4; OVCAR-4, Log10 Concentration −5.0 Molar): 10%
Percent Growth (OVCAR-4; OVCAR-4, Log10 Concentration −6.0 Molar): 31%
Percent Growth (OVCAR-4; OVCAR-4, Log10 Concentration −7.0 Molar): 71%
Percent Growth (OVCAR-4; OVCAR-4, Log10 Concentration −8.0 Molar): 94%
GI50 (SK-MEL-28; Homo sapiens, SK-MEL-28): 18 µM
CC50 (SK-MEL-28; Homo sapiens, SK-MEL-28, read-out: LC50): > 100 µM
TGI (SK-MEL-28; SK-MEL-28): 4.44E−6 Molar
Percent Growth (SK-MEL-28; SK-MEL-28, Log10 Concentration −4.0 Molar): −45%
Percent Growth (SK-MEL-28; SK-MEL-28, Log10 Concentration −5.0 Molar): 82%
Percent Growth (SK-MEL-28; SK-MEL-28, Log10 Concentration −6.0 Molar): 93%
Percent Growth (SK-MEL-28; SK-MEL-28, Log10 Concentration −7.0 Molar): 93%
Percent Growth (SK-MEL-28; SK-MEL-28, Log10 Concentration −8.0 Molar): 83%
TGI (NCI/ADR-RES): 3.32E−6 Molar
GI50 (NCI/ADR-RES; Homo sapiens): 9.22 µM
CC50 (NCI/ADR-RES; Homo sapiens, read-out: LC50): > 100 µM
Percent Growth (NCI/ADR-RES; Log10 Concentration −4.0 Molar): −45%
Percent Growth (NCI/ADR-RES; Log10 Concentration −5.0 Molar): 48%
Percent Growth (NCI/ADR-RES; Log10 Concentration −6.0 Molar): 85%
Percent Growth (NCI/ADR-RES; Log10 Concentration −7.0 Molar): 94%
Percent Growth (NCI/ADR-RES; Log10 Concentration −8.0 Molar): 103%
GI50 (MCF7; Homo sapiens, MCF7): 0.0873 µM
CC50 (MCF7; Homo sapiens, MCF7, read-out: LC50): > 100 µM
TGI (MCF7; MCF7): 2.75E−5 Molar
Percent Growth (MCF7; MCF7, Log10 Concentration −4.0 Molar): −10%
Percent Growth (MCF7; MCF7, Log10 Concentration −5.0 Molar): 8%
Percent Growth (MCF7; MCF7, Log10 Concentration −6.0 Molar): 10%
Percent Growth (MCF7; MCF7, Log10 Concentration −7.0 Molar): 45%
Percent Growth (MCF7; MCF7, Log10 Concentration −8.0 Molar): 75%
GI50 (T-47D; Homo sapiens, T47D): 0.0267 µM
CC50 (T-47D; Homo sapiens, T47D, read-out: LC50): > 100 µM
TGI (T-47D; T-47D): 4.23E−7 Molar
Percent Growth (T-47D; T-47D, Log10 Concentration −4.0 Molar): −14%
Percent Growth (T-47D; T-47D, Log10 Concentration −5.0 Molar): −16%
Percent Growth (T-47D; T-47D, Log10 Concentration −6.0 Molar): −12%
Percent Growth (T-47D; T-47D, Log10 Concentration −7.0 Molar): 20%
Percent Growth (T-47D; T-47D, Log10 Concentration −8.0 Molar): 73%
TGI (ACHN): 2.25E−5 Molar
GI50 (ACHN; Homo sapiens): 2.88 µM
CC50 (ACHN; Homo sapiens, read-out: LC50): > 100 µM
Percent Growth (ACHN; Log10 Concentration −4.0 Molar): −30%
Percent Growth (ACHN; Log10 Concentration −5.0 Molar): 16%
Percent Growth (ACHN; Log10 Concentration −6.0 Molar): 76%
Percent Growth (ACHN; Log10 Concentration −7.0 Molar): 92%
Percent Growth (ACHN; Log10 Concentration −8.0 Molar): 99%
